“And” between values parts separate entries of the source, which are not always exact repeats. Equal values may be shown once.
Tests used:
HDAC2 = HDAC2 (Homo sapiens, UniProt Q92769); test: HDAC-Glo assay; format: biochemical; design: purchased BPS Bioscience 50002; conditions: for EC50: read-out: log EC50 from dose-dependent HDAC inhibition curves (converted); for HDAC2 relative activity: sheet S2b
Experimental: To validate the inhibition of HDACs by LA and LM and elaborate on the structure-activity relationship (SAR) of enantiomers as well as oxidized versus reduced forms of the molecules, we performed enzyme activity assays for recombinant HDAC1,2,3,6,8 as well as FRET-based binding assay for recombinant HDAC10.
The experiments were performed according to ref. [48]. […] Drug dosing was performed with a D300e Digital Dispenser (Tecan). HDACs (7 ng/mL for HDAC1, 25 ng/mL for HDAC2, 200 ng/mL for HDAC3/Ncor2 complex, 100 ng/mL for HDAC6, 200 ng/mL for HDAC8) and inhibitors were incubated together at room temperature (RT) for 30 min. After the addition of the HDAC-Glo™ I/II reagent, plates were shaken (800 rpm orbital shaker, 30 s), centrifuged (300 g, 1 min), and incubated at RT for 30 min. Luminescence was detected with a CLARIOstar (BMG Labtech) plate reader.

[1] = target: T1, HDAC6-catalytic domain 2 (HDAC6CD2) (Homo sapiens, UniProt Q9UBN7); test: NanoBRET intracellular target engagement assay; format: cell-based
T1 construct: HDAC6-catalytic domain 2 (HDAC6CD2); expressed in transfected cells
T1 sequence (Q9UBN7 482-800 limits assumed): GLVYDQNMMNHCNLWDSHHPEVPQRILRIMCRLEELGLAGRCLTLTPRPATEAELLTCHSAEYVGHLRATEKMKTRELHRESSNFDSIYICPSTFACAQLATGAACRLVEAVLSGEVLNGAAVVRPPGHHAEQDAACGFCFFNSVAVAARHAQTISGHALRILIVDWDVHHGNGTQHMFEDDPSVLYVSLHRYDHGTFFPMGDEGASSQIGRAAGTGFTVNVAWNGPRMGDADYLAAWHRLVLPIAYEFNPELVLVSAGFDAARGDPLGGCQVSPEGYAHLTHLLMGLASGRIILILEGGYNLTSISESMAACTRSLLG
Experimental: For the production of transfected HeLa mono-clones stably expressing HDAC-nanoBRET fusion proteins of HDAC10 and HDAC6-catalytic domain 2 (HDAC6CD2), plasmids expressing a fusion of HDAC10 with nanoluciferase were obtained from Promega (N2170). HeLa cells (0.75 × 10^6) were seeded in a 6 cm dish and were transfected with a mix of 10 μg plasmid and 3 μL Fugene in 200 μL OptiMEM after 24 h. The intracellular target engagement assay on HDAC10 and HDAC6CD2 was performed using the NanoBRET™ Target Engagement Intracellular HDAC Assay (Promega N2081 and N2090) as described by the kit manufacturer in a 96-well plate (Corning 3600) format with 2 × 10^4 cells per well and a tracer concentration of 0.3 μM. Inhibitors were dosed with a D300e Digital Dispenser (Tecan). DMSO concentrations were normalized to 0.5% for all wells. After dosing, assay plates were shaken at 800 rpm and incubated at 37 °C for 2 h followed by measurement of 450 nm and 650 nm luminescence (80 nm bandwidth) at room temperature with a CLARIOstar (BMG Labtech) plate reader 2 min after NanoLuc substrate addition.

Chain of HDAC2 (Q92769 whole entry): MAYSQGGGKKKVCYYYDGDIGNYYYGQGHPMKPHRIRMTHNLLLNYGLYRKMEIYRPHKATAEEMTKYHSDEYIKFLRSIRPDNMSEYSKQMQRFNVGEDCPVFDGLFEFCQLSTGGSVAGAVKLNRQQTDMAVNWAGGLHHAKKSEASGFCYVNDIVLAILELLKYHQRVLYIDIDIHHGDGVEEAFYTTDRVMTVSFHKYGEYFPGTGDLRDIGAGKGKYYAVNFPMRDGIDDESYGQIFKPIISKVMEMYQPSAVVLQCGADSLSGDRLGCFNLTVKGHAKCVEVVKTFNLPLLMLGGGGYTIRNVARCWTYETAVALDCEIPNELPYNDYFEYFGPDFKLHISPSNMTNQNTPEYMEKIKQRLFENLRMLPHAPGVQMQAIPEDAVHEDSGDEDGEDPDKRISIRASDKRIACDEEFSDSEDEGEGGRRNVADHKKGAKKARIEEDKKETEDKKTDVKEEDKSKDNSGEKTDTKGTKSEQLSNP

With `O=C(O)CCCCC1CCSS1` (racemic) [(R/S)-LA, (R/S)-lipoic acid] the “HDAC enzymatic activity (normalized luminescence)” value (HDAC2; 0.5 M TCEP, log10 M -3.30103, 3 technical replicates) was 4.517 and 4.579 and 4.669, the “HDAC enzymatic activity (normalized luminescence)” value (HDAC2; 0.5 M TCEP, log10 M -3.82945, 3 technical replicates) was 14.6838 and 15.1597 and 14.9231 and the “HDAC enzymatic activity (normalized luminescence)” value (HDAC2; 0.5 M TCEP, log10 M -4.35788, 3 technical replicates) was 37.5127 and 37.9281 and 38.3803. For the same compound, the “HDAC enzymatic activity (normalized luminescence)” value (HDAC2; 0.5 M TCEP, log10 M -4.88629, 3 technical replicates) was 65.6665 and 63.7639 and 65.7588, the “HDAC enzymatic activity (normalized luminescence)” value (HDAC2; 0.5 M TCEP, log10 M -5.41477, 3 technical replicates) was 83.5292 and 85.2785 and 86.439 and the “HDAC enzymatic activity (normalized luminescence)” value (HDAC2; 0.5 M TCEP, log10 M -5.94309, 3 technical replicates) was 90.5846 and 91.5425 and 93.8157. The “HDAC enzymatic activity (normalized luminescence)” value (HDAC2; 0.5 M TCEP, log10 M -6.47756, 3 technical replicates) was 95.0155 and 95.0012 and 98.6939, the “HDAC enzymatic activity (normalized luminescence)” value (HDAC2; 0.5 M TCEP, log10 M -6.87615, 3 technical replicates) was 97.7664 and 98.3233 and 101.153 and the “HDAC enzymatic activity (normalized luminescence)” value (HDAC2; no TCEP, log10 M -3.30103, 3 technical replicates) was 44.2753 and 42.6833 and 42.8281. The “HDAC enzymatic activity (normalized luminescence)” value (HDAC2; no TCEP, log10 M -3.82945, 3 technical replicates) was 74.0269 and 74.0487 and 74.0611, the “HDAC enzymatic activity (normalized luminescence)” value (HDAC2; no TCEP, log10 M -4.35788, 3 technical replicates) was 91.4647 and 91.3223 and 92.1121 and the “HDAC enzymatic activity (normalized luminescence)” value (HDAC2; no TCEP, log10 M -4.88629, 3 technical replicates) was 96.4611 and 96.3058 and 97.9917. The “HDAC enzymatic activity (normalized luminescence)” value (HDAC2; no TCEP, log10 M -5.41477, 3 technical replicates) was 98.5234 and 99.2037 and 100.016, the “HDAC enzymatic activity (normalized luminescence)” value (HDAC2; no TCEP, log10 M -5.94309, 3 technical replicates) was 96.9658 and 96.4307 and 98.1115 and the “HDAC enzymatic activity (normalized luminescence)” value (HDAC2; no TCEP, log10 M -6.47756, 3 technical replicates) was 98.5723 and 98.9021 and 101.472. For the same compound, the “HDAC enzymatic activity (normalized luminescence)” value (HDAC2; no TCEP, log10 M -6.87615, 3 technical replicates) was 102.033 and 100.085 and 101.747, the EC50 (HDAC2) was 27.9 µM and the HDAC2 relative activity (HDAC2; log conc -3.30103) was 1.632 and 1.608 and 1.6104. The HDAC2 relative activity (HDAC2; log conc -3.82945) was 4.377 and 4.239 and 4.397, the HDAC2 relative activity (HDAC2; log conc -4.35788) was 14.1348 and 14.1034 and 14.0027 and the HDAC2 relative activity (HDAC2; log conc -4.88629) was 32.6794 and 32.1097 and 32.0348. For the same compound, the HDAC2 relative activity (HDAC2; log conc -5.41477) was 62.7872 and 63.5079 and 63.5078, the HDAC2 relative activity (HDAC2; log conc -5.94309) was 83.5078 and 83.413 and 83.6174 and the HDAC2 relative activity (HDAC2; log conc -6.47756) was 91.2192 and 90.5813 and 91.6447. For the same compound, the HDAC2 relative activity (HDAC2; log conc -6.87615) was 99.2152 and 97.4208 and 97.0893 and the “potency of intracellular target engagement and HDAC substrate hyperacetylation” value ([1]; peer review response) was 50 to 300 µM.

`NC(=O)CCCCC1CCSS1` (racemic) [(R/S)-LM, (R/S)-lipoamide] was tested, and the EC50 (HDAC2) was 6.64 µM, the HDAC2 relative activity (HDAC2; log conc -3.30103) was 71.964 and 72.3177 and 72.1483 and the HDAC2 relative activity (HDAC2; log conc -3.82945) was 80.6393 and 80.2369 and 79.5941. For the same compound, the HDAC2 relative activity (HDAC2; log conc -4.35788) was 93.3465 and 95.4258 and 92.7624, the HDAC2 relative activity (HDAC2; log conc -4.88629) was 96.436 and 96.5227 and 94.9323 and the HDAC2 relative activity (HDAC2; log conc -5.41477) was 101.607 and 103.068 and 101.387. The HDAC2 relative activity (HDAC2; log conc -5.94309) was 100.457 and 99.1256 and 100.639, the HDAC2 relative activity (HDAC2; log conc -6.47756) was 98.6184 and 99.6756 and 101.604 and the HDAC2 relative activity (HDAC2; log conc -6.87615) was 101.142 and 100.648 and 102.314. For the same compound, the “intracellular binding to HDAC6” value ([1]; HeLa cells) was “dose-dependent intracellular binding” and the IC50 ([1]; HeLa cells, 2 h, read-out: concentration of half maximal HDAC6 inhibition) was 35 µM.
